For one assay, the system named is aged WT mice. The assay is described as follows: Novel Object Recognition test in aged WT mice with ICV infusion. Format: in vivo, mouse. As to the method: FIG. 15. Osteocalcin improves hippocampal function in aged wild-type (WT) mice. Constant and novel object investigation in the Novel Object Recognition test in 17 month old mice treated for 1 month with vehicle or 10 ng/hr recombinant uncarboxylated osteocalcin.
ICV pumps delivering (10 ng/hr) recombinant uncarboxylated full-length mouse osteocalcin were implanted in 16 month old WT mice. After an infusion period of one month, the mice were subjected to a modified version of the Novel Object Recognition test, to assay memory and hippocampal function. Briefly, mice were given five 5 minute exposures, with 3 minute resting intervals between exposures, to a novel arena containing two objects. During exposures 1-4, mice were habituated to these two objects, which elicited equal amounts of exploration. In the fifth exposure, one of the objects was replaced with a novel object.

Assay [1] has as its system WT myotubes. The assay is described as follows: 14C-oleate (fatty acid) oxidation in myotubes. Format: cell-based, mouse. As for the experimental part: (§1) Glucose and insulin tolerance tests were performed as previously described (Lee et al., 2007, Cell 130:456-469). For in vivo glucose uptake, a bolus of 2-deoxy-d-[^3H]glucose (^3H-2-DG, Perkin Elmer) (10 μCi) was administered before an endurance run. ^3H-2-DG and ^3H-2-DG-6-P content in muscle was determined by liquid scintillation counter and normalized to muscle weight. Glucose uptake and fatty acid oxidation assays in myotubes were performed as previously described (Sebastian et al., 2007, Am. J. Physiol. Endocrinol. Metab. 292:E667-686). GLUT4 translocation was determined by flow cytometry using an antibody against the extracellular domain of the GLUT4 protein (Santa Cruz, Sc-1606). Measurements of oxygen consumption rates (OCR) in isolated myofibers were performed using a XF24 Seahorse Analyzer® (Seahorse Biosciences). To analyze mitochondrial function, myofibers were treated with three compounds in succession (oligomycin 10 μg/ml, FCCP 200 μM, rotenone 0.2 μM) and OCR was recorded following administration of each of them.
Culture of skeletal muscle myoblasts from 7 day-old mice was performed as described (Gharaibeh et al., 2008, Nature Protocols 3:1501-1509). Myoblasts were differentiated into myotubes for 3-4 days in a medium containing 5% horse serum. Muscle fibers were isolated from flexor digitorum brevis muscle. Muscles were dissected with DMEM 2% collagenase for 2 hours at 37° C., in a 5% CO2 incubator. Muscle fibers were disaggregated from the tissue using a wide bore pipet and plated in matrigel-coated plates at approximately 50% confluence. After overnight incubation, isolated myofibers were used.

In a further assay the test system is Gprc6a−/− myotubes. The assay is described as follows: cAMP accumulation in myotubes. The class given is cell-based, mouse. The following applies: Ocn 10 ng/ml. As to the method:
(§2) FIG. 25. Osteocalcin signaling in myofibers is necessary for muscle function during exercise. (A) Serum total osteocalcin (Ocn) and insulin (Ins) levels measured in mice at rest or after a single bout of exercise (40 min, 30 cm/s running on a treadmill) (n=7 per group). (B) Serum uncarboxylated (uncarb)-Ocn levels measured in mice at rest and 0, 1, 2 and 4 hours after a single bout of exercise (40 min, 30 cm/s running on a treadmill) (n=7 per group). (C) Serum CTX levels in mice at rest and after a single bout of exercise (n=7 per group). (D) Performance during endurance exercise of 3 month-old female Ocn-deficient and WT littermates (n=8-10 per group). (E) Performance during endurance exercise of 3 month-old Ocn f/f and OcnOsb−/− littermates (n=3-5 per group). (F) Performance during endurance exercise of 3 month-old female Gprc6a-deficient and WT littermates (n=8-10 per group). (G) Gprc6a expression in various tissues. (H) Gprc6a expression in EDL and soleus muscles (n=3). (I) In situ hybridization analysis of Gprc6a expression in soleus muscle. (J) Gprc6a expression in WT and Ocn−/− muscles (n=6 per group). […]
(§3) Serum osteocalcin, PINP, CTX, and insulin levels were measured using ELISA assays. Blood glucose level was measured using an Accu-Check glucometer. Urine 3-MHT was measured as previously described (Aranibar et al., 2011, Anal. Biochem. 410:84-91). […]

Assay [2] relates to WT myotubes. The assay is described as follows: cAMP accumulation in myotubes. Format: cell-based, mouse. The following applies: Ocn 10 ng/ml. As to the method:
as §2, §3

For assay [3], the system named is glycolytic and oxidative muscles of WT mice. The assay is described as follows: In vivo 3H-2-DG glucose uptake in muscle after exercise. On the set-up: species or system mouse. The conditions noted are these: older WT mice receiving Ocn (500 ng/g) before running; greater extent in oxidative than glycolytic muscles. As to the method:
FIG. 31. Osteocalcin treatment increases muscle function in young and old WT mice. (A-B) Performance during endurance exercise of 3 month-old WT, Gprc6af/f and Gprc6aMck−/− female mice treated with Ocn (n=6-10 per group). (C) Performance during endurance exercise of 12 and 15 month-old WT female mice treated with Ocn (n=6-10 per group). (D) Western blot analysis of Akt phosphorylation (Ser473) in muscles of WT mice injected with Ocn (500 ng/g) after a single bout of exercise. (E) Western blot analysis of AMPK phosphorylation ([…]) in muscles of WT mice injected with Ocn (500 ng/g) after a single bout of exercise. […]
as §1, with “Glucose uptake and fatty acid oxidation assays in myotubes were performed as previously described (Sebastian et al., 2007, Am. J. Physiol. Endocrinol. Metab. 292:E667-686).” left out, “Measurements of oxygen consumption rates (OCR) in isolated myofibers were performed using a XF24 Seahorse Analyzer® (Seahorse Biosciences).” left out

This is an account of results in patent US11191811B2, “Osteocalcin as a treatment for frailty associated with aging” (THE TRUSTEES OF COLUMBIA UNIVERSITY IN THE CITY OF NEW YORK, priority 2014, dated 2021).

For the substance “uncarboxylated osteocalcin: Recombinant uncarboxylated mouse osteocalcin, bacterially produced, purified on glutathione beads and cleaved from the GST subunit by thrombin (YLGASVPSPDPLEPTREQCELNPACDELSDQYGLKTAYKRIYGITI)”, the “time exploring the novel object” value with aged WT mice (10 ng/hr ICV for one month, 16 month old WT mice, versus vehicle alone) is given as “less time”. Further, the “discrimination between the novel and constant objects” value with aged WT mice (10 ng/hr ICV for one month, aged mice) was “able to discriminate”. Besides, the hippocampal function result in the assay on aged WT mice (aged WT mice (FIG. 15 title)) is on record as “improves”. For the same substance, the 14C-oleate oxidation entry in the assay with WT myotubes [1] (WT myotubes) is “increase”. In addition, the fatty acid oxidation entry in the assay on WT myotubes [1] (summary statement, in muscle) is “favors”. The cAMP production result with Gprc6a−/− myotubes was “did not increase”; in the assay on WT myotubes [2] it was “increase”. Besides, the “glucose uptake in muscle” value in assay [3] is “increase”.
